Consider 14 compounds from ChEMBL document CHEMBL3085684, “Unraveling phosphodiesterase surfaces. Identification of phosphodiesterase 7 allosteric modulation cavities” (Eur J Med Chem, 2013).

Calls of active or inactive are those of the source. The calls are words filed in the database; no cut-off is given here.

One assay deals with T1, High affinity 3',5'-cyclic-AMP phosphodiesterase 7A (Homo sapiens, UniProt Q13946). Description: Inhibition of human recombinant PDE7A1 using […] after 20 mins by scintillation proximity assay. On the technique in general: SPA uses beads or plates that emit light when radiolabelled molecules are held near them.
T1 sequence (Q13946 whole entry): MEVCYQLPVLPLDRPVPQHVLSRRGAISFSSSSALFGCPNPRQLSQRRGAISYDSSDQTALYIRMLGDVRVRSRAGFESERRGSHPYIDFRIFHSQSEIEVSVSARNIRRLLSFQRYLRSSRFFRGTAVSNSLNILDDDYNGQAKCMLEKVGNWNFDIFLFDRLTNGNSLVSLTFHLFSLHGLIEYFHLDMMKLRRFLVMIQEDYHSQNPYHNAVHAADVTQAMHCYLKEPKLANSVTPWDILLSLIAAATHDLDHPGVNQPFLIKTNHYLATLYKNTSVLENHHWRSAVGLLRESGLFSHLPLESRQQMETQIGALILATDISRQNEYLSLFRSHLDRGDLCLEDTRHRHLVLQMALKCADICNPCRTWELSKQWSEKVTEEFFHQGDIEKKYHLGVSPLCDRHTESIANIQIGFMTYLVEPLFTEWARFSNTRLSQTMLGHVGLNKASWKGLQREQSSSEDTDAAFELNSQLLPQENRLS
Turning to `CSc1nc2c(C)cccc2c(=O)n1-c1ccccc1Br`, the IC50 (commonly the concentration that gives 50% inhibition) came out at 1.69 µM. Regarding `CSc1nc2ccccc2c(=S)n1-c1ccccc1Br`, the IC50 was 5.33 µM. On the same count and under the same terms, with `CSc1nc2c(Cl)cccc2c(=O)n1-c1c(F)cccc1F` the figure was 15.2 µM; with `Cc1cccc2c(=O)n(-c3c(F)cccc3F)c(=S)[nH]c12`, 9.3 µM; with `Fc1cccc(F)c1-n1c(=S)[nH]c2ccccc2c1=S`, 0.48 µM.

On to `O=c1c2ccccc2[nH]c(=S)n1-c1ccc(F)c(F)c1F`, for which the IC50 was found to be 7.02 µM.

On to `CSc1nc2ccc(Br)cc2c(=O)n1-c1ccc(F)c(F)c1F`, for which the half-inhibitory concentration (IC50) is 5.07 µM.

Regarding `CSc1nc2ccccc2c(=S)n1-c1c(F)cccc1F`, the concentration for half-maximal inhibition (IC50) was determined as 3.23 µM.

The target of a further assay is T1, High affinity 3',5'-cyclic-AMP phosphodiesterase 7A. Description: Non-competitive mixed type inhibition of human recombinant PDE7A1 using […] after 20 mins by Lineweaver-Burk plot analysis.
Take `O=c1c2ccccc2[nH]c(=S)n1-c1ccccc1`: the inhibition result was “Active”. On the same count and under the same terms, with `S=c1[nH]c2ccccc2c(=S)n1-c1ccccc1` the entry was “Active”.

The target is the same in another assay. Description: Competitive inhibition of human recombinant PDE7A1 using […] after 20 mins by Lineweaver-Burk plot analysis.
As to `O=c1c2ccccc2nc(SCc2ccccc2)n1-c1ccccc1`, the “competitive inhibition (Lineweaver-Burk)” value is “Active”. Turning to `CC(C)Cn1c(=O)n(C)c(=O)c2nc[nH]c21`, the “competitive inhibition (Lineweaver-Burk)” value is “Active”.

As for `CSc1nc2ccccc2c(=O)n1-c1c(F)cccc1F`, the “competitive inhibition (Lineweaver-Burk)” value was “Active”. In the case of `CCSc1nc2ccccc2c(=O)n1-c1ccccc1`, the “competitive inhibition (Lineweaver-Burk)” value is “Active”.
